“And” between values parts separate entries of the source, which are not always exact repeats. Equal entries are not always repeated. Where two headings read alike, the source gives them in different places.
Tests used:
[1] = target: (h)AChE (AChE from human erythrocytes) (Homo sapiens, UniProt P22303); assay: biochemical; conditions: for inhibition at 1 µM: read-out: (h)AChE % Inhibition at 10^−6 M
Experimental: DPZ was used as a reference.
Inhibitory capacity of compounds on AChE biological activity was evaluated using the spectrometric method of Ellman. Acetyl- or butyrylthiocholine iodide and 5,5-dithiobis-(2-nitrobenzoic) acid (DTNB) were purchased from Sigma Aldrich. Lyophilized BuChE from equine serum (Sigma Aldrich) was dissolved in 0.2 M phosphate buffer pH 7.4 such as to have enzyme solutions stock with 2.5 units/mL enzyme activity. AChE from human erythrocytes (buffered aqueous solution, ≥500 units/mg protein (BCA), Sigma Aldrich) was diluted in 20 mM HEPES buffer pH 8, 0.1% Triton X-100 such as to have enzyme solution with 0.25 unit/mL enzyme activity. In the procedure, 100 μL of 0.3 mM DTNB dissolved in phosphate buffer pH 7.4 was added to the 96 wells plate followed by 50 μL of test compound solution and 50 μL of enzyme (0.05 U final). After 5 min of preincubation at 25 °C, the reaction was then initiated by the injection of 50 μL of 10 mM acetyl- or butyrylthiocholine iodide solution. […] Assays were performed in simplicate during three independent tests, with a blank containing all components except acetyl- or butyrylthiocholine, in order to account for non-enzymatic reaction. The reaction slopes were compared, and the percent inhibition due to the presence of test compounds was calculated by the following expression: 100 − (vi/v0 × 100) where vi is the rate calculated in the presence of inhibitor and v0 is the enzyme activity.

[2] = target: (eq)BuChE (BuChE from equine serum) (Equus caballus, UniProt P81908); assay: (eq)BuChE inhibition, Ellman test; format: biochemical; conditions: for inhibition at 1 µM: read-out: (eq)BuChE % Inhibition at 10^−6 M
Experimental: . DPZ was used as a reference.
Inhibitory capacity of compounds on AChE biological activity was evaluated using the spectrometric method of Ellman. Acetyl- or butyrylthiocholine iodide and 5,5-dithiobis-(2-nitrobenzoic) acid (DTNB) were purchased from Sigma Aldrich. Lyophilized BuChE from equine serum (Sigma Aldrich) was dissolved in 0.2 M phosphate buffer pH 7.4 such as to have enzyme solutions stock with 2.5 units/mL enzyme activity. AChE from human erythrocytes (buffered aqueous solution, ≥500 units/mg protein (BCA), Sigma Aldrich) was diluted in 20 mM HEPES buffer pH 8, 0.1% Triton X-100 such as to have enzyme solution with 0.25 unit/mL enzyme activity. In the procedure, 100 μL of 0.3 mM DTNB dissolved in phosphate buffer pH 7.4 was added to the 96 wells plate followed by 50 μL of test compound solution and 50 μL of enzyme (0.05 U final). After 5 min of preincubation at 25 °C, the reaction was then initiated by the injection of 50 μL of 10 mM acetyl- or butyrylthiocholine iodide solution. The hydrolysis of acetyl- or butyrylthiocholine was monitored by the formation of yellow 5-thio-2-nitrobenzoate anion as the result of the reaction of DTNB with thiocholine, released by the enzymatic hydrolysis of acetyl- or butyrylthiocholine, at a wavelength of 412 nm using a 96-well microplate plate reader (TECAN Infinite M200, Lyon, France). […]. The rate of absorbance increase at 412 nm was followed every minute for 10 min. Assays were performed in simplicate during three independent tests, with a blank containing all components except acetyl- or butyrylthiocholine, in order to account for non-enzymatic reaction. The reaction slopes were compared, and the percent inhibition due to the presence of test compounds was calculated by the following expression: 100 − (vi/v0 × 100) where vi is the rate calculated in the presence of inhibitor and v0 is the enzyme activity.
First screening of AChE and BuChE activity was carried out at a 10^−6 or 10^−5 M concentration of compounds under study. […]

human recombinant MAO-B = target: T1, human recombinant MAO-B (Homo sapiens, UniProt P27338); assay: (h)MAO-B inhibition, kynuramine fluorescence assay; format: biochemical; conditions: kynuramine 50 µM; for inhibition at 10 µM: 10^−5 M; for IC50: (h)MAO-B IC50 (µM) (n = 3), mean ± SEM, n = 3
T1 construct: purchased Sigma Aldrich; host or cells: baculovirus infected insect cells (microsomes)
T1 sequence (P27338 1-520): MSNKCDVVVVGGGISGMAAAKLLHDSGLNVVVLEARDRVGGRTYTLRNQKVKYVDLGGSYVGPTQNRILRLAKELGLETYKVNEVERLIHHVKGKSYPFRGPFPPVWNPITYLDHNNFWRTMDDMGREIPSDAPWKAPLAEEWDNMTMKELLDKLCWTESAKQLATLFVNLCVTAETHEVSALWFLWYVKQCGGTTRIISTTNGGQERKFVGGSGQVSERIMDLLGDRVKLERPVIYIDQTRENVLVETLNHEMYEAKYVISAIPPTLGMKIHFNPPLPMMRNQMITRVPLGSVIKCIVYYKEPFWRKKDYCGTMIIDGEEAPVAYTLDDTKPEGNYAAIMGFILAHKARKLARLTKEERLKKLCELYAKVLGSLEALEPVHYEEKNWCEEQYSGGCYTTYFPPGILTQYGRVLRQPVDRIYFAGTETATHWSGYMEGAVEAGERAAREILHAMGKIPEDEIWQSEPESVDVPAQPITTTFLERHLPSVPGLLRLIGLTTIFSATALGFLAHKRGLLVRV
Experimental: (§1) Inhibition of human recombinant monoamine oxidases A (250 U/mg) and B (59 U/mg; microsomes from baculovirus infected insect cells; Sigma Aldrich) was determined as already described, measuring the fluorescence of 4-hydroxyquinoline (exc. 310 nm; em. 400 nm) produced by MAOs in the oxidative deamination of substrate kynuramine. […] Assays were performed in triplicate during three independent tests, in 96-well black polystyrene plates (Greiner Bio-One, Kremsmünster, Austria) using an Infinite M1000 Pro plate reader (Tecan, Cernusco s.N., Italy).

human recombinant MAO-A = target: T2, human recombinant MAO-A (Homo sapiens, UniProt P21397); assay: (h)MAO-A inhibition, kynuramine fluorescence assay; format: biochemical; conditions: 10^−5 M; kynuramine 50 µM
T2 construct: purchased Sigma Aldrich; host or cells: baculovirus infected insect cells (microsomes)
T2 sequence (P21397 1-527): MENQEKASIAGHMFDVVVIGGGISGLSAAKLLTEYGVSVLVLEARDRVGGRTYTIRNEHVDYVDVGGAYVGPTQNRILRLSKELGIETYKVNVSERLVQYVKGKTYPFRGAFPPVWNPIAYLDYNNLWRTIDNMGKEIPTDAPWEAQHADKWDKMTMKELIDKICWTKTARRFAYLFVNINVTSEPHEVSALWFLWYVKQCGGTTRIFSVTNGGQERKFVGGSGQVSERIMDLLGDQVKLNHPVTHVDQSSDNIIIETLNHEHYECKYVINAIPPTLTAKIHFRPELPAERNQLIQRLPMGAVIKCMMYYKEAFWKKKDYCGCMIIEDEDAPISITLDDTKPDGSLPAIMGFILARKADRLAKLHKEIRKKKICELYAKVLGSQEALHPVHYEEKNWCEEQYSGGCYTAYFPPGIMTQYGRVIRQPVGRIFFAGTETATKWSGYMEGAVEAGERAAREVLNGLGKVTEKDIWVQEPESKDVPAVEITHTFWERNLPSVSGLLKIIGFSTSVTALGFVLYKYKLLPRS
Experimental: as §1

Chain of (h)AChE (AChE from human erythrocytes) (P22303 other isoform, or with tags, fused parts or gaps): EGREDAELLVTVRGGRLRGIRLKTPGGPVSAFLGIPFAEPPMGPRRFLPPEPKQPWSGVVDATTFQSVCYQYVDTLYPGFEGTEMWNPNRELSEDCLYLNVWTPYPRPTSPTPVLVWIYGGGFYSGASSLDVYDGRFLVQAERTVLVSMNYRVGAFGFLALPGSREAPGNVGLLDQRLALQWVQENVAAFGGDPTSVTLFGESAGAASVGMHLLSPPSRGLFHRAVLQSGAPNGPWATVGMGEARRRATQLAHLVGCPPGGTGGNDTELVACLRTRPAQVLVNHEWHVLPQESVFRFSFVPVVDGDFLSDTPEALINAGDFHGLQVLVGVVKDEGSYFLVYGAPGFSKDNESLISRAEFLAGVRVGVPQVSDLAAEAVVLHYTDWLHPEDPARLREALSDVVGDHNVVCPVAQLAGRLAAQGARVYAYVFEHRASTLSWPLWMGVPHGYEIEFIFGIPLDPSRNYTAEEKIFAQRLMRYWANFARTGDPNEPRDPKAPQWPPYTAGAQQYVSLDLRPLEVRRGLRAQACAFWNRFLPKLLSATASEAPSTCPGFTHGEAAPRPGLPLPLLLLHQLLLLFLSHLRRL
Chain of (eq)BuChE (BuChE from equine serum) (P81908 whole entry): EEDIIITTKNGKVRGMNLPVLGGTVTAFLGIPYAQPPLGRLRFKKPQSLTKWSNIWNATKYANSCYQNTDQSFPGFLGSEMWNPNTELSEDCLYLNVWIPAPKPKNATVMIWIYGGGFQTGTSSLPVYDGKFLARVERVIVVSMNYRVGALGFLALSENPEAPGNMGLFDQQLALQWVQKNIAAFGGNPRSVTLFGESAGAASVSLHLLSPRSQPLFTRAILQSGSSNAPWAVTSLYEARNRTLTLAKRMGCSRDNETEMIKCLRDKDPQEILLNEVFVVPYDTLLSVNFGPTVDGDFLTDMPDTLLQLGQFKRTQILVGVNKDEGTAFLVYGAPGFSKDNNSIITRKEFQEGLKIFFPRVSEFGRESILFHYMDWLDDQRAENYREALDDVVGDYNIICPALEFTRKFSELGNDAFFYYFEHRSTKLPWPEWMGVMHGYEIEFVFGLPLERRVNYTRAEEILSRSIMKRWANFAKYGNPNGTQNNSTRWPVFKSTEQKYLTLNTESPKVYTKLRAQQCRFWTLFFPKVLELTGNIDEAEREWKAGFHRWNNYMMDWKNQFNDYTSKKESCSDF

SMILES: C#CCN[C@@H]1c2cc(OC)c(OC)cc2C(=O)[C@H]1CC1CCN(Cc2ccccc2)CC1 (relative stereo) [Trans-PADPZ (19), Trans 2-[(1-Benzyl-4-piperidyl)methyl]-5,6-dimethoxy-3-(prop-2-ynylamino)indan-1-one]
- IC50 ([1]; (h)AChE IC50 (µM) (n = 3), mean ± SEM, n = 3): 0.4 µM and 0.442 µM
- relative selectivity: BuChE inhibited at a concentration fold greater than AChE ([1]; BuChE IC50 vs (h)AChE IC50): 10 fold
- inhibition at 1 µM [1]: 71%
- IC50 ([1]; value in nM, read-out: (h)AChE IC50): 0.44 µM
- IC50 ([2]; (eq)BuChE IC50 (µM) (n = 3), mean ± SEM, n = 3): 4.23 ± 0.375 µM
- inhibition at 1 µM [2]: 74%
- inhibition at 10 µM (human recombinant MAO-B): 52%
- IC50 (human recombinant MAO-B): 6.4 µM and 6.43 µM
- inhibition at 10 µM (human recombinant MAO-A): 13%

SMILES: C#CCNC1CC(=O)c2cc(OC)c(OC)cc21 (centres unmarked) [Compound 5, 5,6-Dimethoxy-3-(prop-2-ynylamino)indan-1-one]
- inhibition at 10 µM (human recombinant MAO-B): 45%
- IC50 (human recombinant MAO-B): 13.4 ± 3.4 µM
- inhibition at 10 µM (human recombinant MAO-A): < 10%

SMILES: COc1cc2c(cc1OC)C(NC(C)=O)C(CC1CCN(Cc3ccccc3)CC1)C2=O (centres unmarked) [Compound 16]
- inhibition at 1 µM [1]: 4%
- inhibition at 1 µM [2]: 39%
